Where two headings read alike, the source gives them in different places. Square brackets hold non-standard residues; d marks the D form. Peptide text beside a SMILES is read from it. * marks the point of attachment. FITC = O=C1OC2(c3ccc(O)cc3Oc3cc(O)ccc32)c2ccc(NC(=S)*)cc21; Ahx = NCCCCCC(=O)O
What was measured:
skin of nude mice = experiment: Penetration of biotinylated conjugates into skin of nude mice (streptavidin staining); details: for penetration of drug conjugates into skin: 1 mM-100 μM in PBS, nude mice, thirty, sixty, 120 minutes; for penetration into skin (streptavidin staining): mouse, in vivo
Method: Samples (100 μl) were applied as a liquid without excipient, prevented from dispersing by a Vaseline™ barrier, and allowed to penetrate for fifteen minutes. At the end of this period the animal was sacrificed, the relevant sections of skin were excised, embedded in mounting medium (OCT), and frozen. Frozen sections (5 microns) were cut using a cryostat, collected on slides, and stained with fluorescently labeled streptavidin (Vector Laboratories, Burlingame, Calif.). The slides were fixed in acetone at 4° C. for ten minutes, air dried, soaked in PBS for five minutes, blocked with normal goat serum for five minutes, and washed with PBS for five minutes. The section was stained by incubation with fluorescently labeled streptavidin at 30 μg/ml for thirty minutes, washed with PBS, counterstained with propidium iodide (1 μg/ml) for two minutes, and the section was mounted with Vectashield™ mounting media. Slides were analyzed by fluorescent microscopy. Parallel studies were done using streptavidin-horse radish peroxidase rather than fluorescein-streptavidin. The biotinylated peptide was visualized by treatment of the sections with the horseradish peroxidase substrate diaminobenzadine, and visualization with light microscopy.
Alternatively, sample (100 μl) was applied as a liquid without excipient and prevented from evaporating by wrapping plastic wrap over the sample sealed with Vaseline™. […] At the end of this period animal was sacrificed, the relevant section of skin was excised, embedded in mounting medium (OCT) and frozen. […] Slides were analyzed by fluorescent microscopy.
At the end of this period animal was sacrificed, the relevant section of skin was excised, embedded in mounting medium (OCT) and frozen. […] Slides were analyzed by fluorescent microscopy
(§1) At the end of this period animal was sacrificed, the relevant section of skin was excised, embedded in mounting medium (OCT) and frozen. […] Slides were analyzed by fluorescent microscopy.
as §1

Caco-2 cells = experiment: Cellular uptake in Caco-2 cells; type: cell-based, human; details: five minutes; for uptake into Caco-2 cells in suspension (flow cytometry): 50-0.8 μM
Method: To analyze the penetration of fluorescent oligomers of D-arginine into the cells when in suspension, the monolayers were treated with trypsin (4.5 ml of a 0.05% solution Gibco, Grand Rapids, Mich.) and the individual cell suspension was spun down.
To analyze the ability of the fluorescent peptides to enter Caco-2 cells when part of a monolayer, the cells were seeded in lab-tek flaskette microscope slides (Nalge Nunc Int., Naperville, Ill.) in 4 ml at a density of 60,000 cells/ml and grown for 21 days with the media being changed every other day. […] The monolayer was subsequently washed with PBS/2% FBS twice to remove labeled peptide and analyzed using fluorescent microscopy.
Varying concentrations of the taxol conjugates (50-0.08 μM) were added to the apical side and exposed to the monolayer of Caco-2 cells for three minutes. The membrane was removed from the apparatus, the cells trypsinized, and the resulting cell suspension was analyzed by flow cytometry (FIG. 33).

skin of Balb/C mice = details: mouse, in vivo
Method: Slides were analyzed by fluorescent microscopy.

[1] = test system: human skin grafts on SCID mice; details: in vivo
Method: Samples (100 μl) were applied as a liquid within excipient and prevented from dispersing by a Vaseline™ barrier and allowed to penetrate for fifteen minutes. At the end of this period animal was sacrificed, the relevant section of skin was excised, embedded in mounting medium (OCT) and frozen. […] Slides were analyzed by fluorescent microscopy.

[2] = Half-life / release of conjugate in buffer; type: physicochemical
Jurkat cells [3] = experiment: Cellular uptake kinetics assay (Michaelis-Menton); type: cell-based, human; parameters: Vmax: unit not given here
Method: (§2) The accuracy of this method for determining concentration was established by weighing selected samples and dissolving them in a known amount of PBS buffer. The concentrations determined by UV spectroscopy correlated with the amounts weighed out manually. Jurkat cells (human T cell line), murine B cells (CH27), or human PBL cells were grown in 10% fetal calf serum and DMEM and each of these were used for cellular uptake experiments. […] The microtiter plates were centrifuged and the cells were isolated, washed with cold PBS (3×250 μL), incubated with 0.05% trypsin/0.53 mM EDTA at 37° C. for 5 min, washed with cold PBS, and resuspended in PBS containing 0.1% propidium iodide. The cells were analyzed using fluorescent flow cytometry (FACScan, Becton Dickinson) and cells staining with propidium iodide were excluded from the analysis. The data presented is the mean fluorescent signal for the 5000 cells collected.
Cellular Uptake Kinetics Assay. The assays were performed as previously described except the cells were incubated for 0.5, 1, 2, and 4 min at 4° C. in triplicate in 2% FCS/PBS (50 μl) in microtiter plates (96 well). The reactions were quenched by diluting the samples into 2% FCS/PBS (5 mL). The assays were then worked up and analyzed by fluorescent flow cytometry as previously described.
The rates of cellular uptake were determined after incubation (3° C.) of the peptides in Jurkat cells for 30, 60, 120, and 240 seconds (Table 1).

Jurkat cells [4] = experiment: FACS cellular uptake assay; type: cell-based, human; details: 4 min, 23° C.
Method: as §2
Inhibition of Cellular Uptake with Sodium Azide. The assays were performed as previously described with the exception that the cells used were preincubated for 30 min with 0.5% sodium azide in 2% FCS/PBS buffer prior to the addition of fluorescent peptides and the cells were washed with 0.5% sodium azide in PBS buffer. All of the cellular uptake assays were run in parallel in the presence and absence of sodium azide.
To determine the structural requirements for the cellular uptake of short arginine-rich peptides, a series of fluorescently-labeled truncated analogues of Tat49-57 were synthesized using standard solid-phase chemistry. See, e.g., Atherton, E. et al. SOLID-PHASE PEPTIDE […] (IRL: Oxford, Engl. 1989). A fluorescein moiety was attached via an aminohexanoic acid spacer on the amino termini. The ability of these fluorescently labeled peptides to enter Jurkat cells was then analyzed using fluorescent activated cell sorting (FACS). The peptide constructs tested were Tat49-57 (Fl-ahx-[…]; SEQ ID NO:8): Tat49-56 (Fl-ahx-[…]; SEQ ID NO:9), Tat49-55 (Fl-ahx-RKKRRQR; SEQ ID NO: 10), Tat50-57 (Fl-ahx-[…]; SEQ ID NO: 11), and Tat51-57 (Fl-ahx-KRRQRRR; SEQ ID NO: 12). Differentiation between cell surface binding and internalization was accomplished throughout by running a parallel set of assays in the presence and absence of sodium azide. Because sodium azide inhibits energy-dependent cellular uptake but not cell surface binding, the difference in fluorescence between the two assays provided the amount of fluorescence resulting from internalization.

[5] = Jurkat cells, incubation 30, 60, 120, 240 seconds, 3° C.

## CC(=O)O[C@H]1C(=O)[C@@]2(C)[C@H]([C@H](OC(=O)c3ccccc3)[C@]3(O)C[C@H](OC(=O)[C@H](OC(=O)NCCCC[C@H](NC(=O)[C@@H](CCCNC(=N)N)NC(=O)[C@@H](CCCNC(=N)N)NC(=O)[C@@H](CCCNC(=N)N)NC(=O)[C@@H](CCCNC(=N)N)NC(=O)[C@@H](CCCNC(=N)N)NC(=O)[C@@H](CCCNC(=N)N)NC(=O)[C@@H](CCCNC(=N)N)NC(=O)CCCCCNC(=O)CCCC[C@@H]4SC[C@@H]5NC(=O)N[C@@H]54)C(N)=O)[C@@H](NC(=O)c4ccccc4)c4ccccc4)C(C)=C1C3(C)C)[C@]1(OC(C)=O)CO[C@@H]1C[C@@H]2O [B-aca-r7-K-taxol]
Skin of nude mice
  penetration of drug conjugates into skin: effectively entered into and across the epidermis and into the dermis of the skin of nude mice

## N=C(N)NCCC[C@H](NC(=O)[C@H](CCCNC(=N)N)NC(=O)[C@H](CCCNC(=N)N)NC(=O)[C@H](CCCNC(=N)N)NC(=O)[C@H](CCCNC(=N)N)NC(=O)CCCCCNC(=S)Nc1ccc2c(c1)C(=O)OC21c2ccc(O)cc2Oc2cc(O)ccc21)C(N)=O [R5, F1-ahx-RRRRR] ({FITC-Ahx}-RRRRR-NH2)
Caco-2 cells
  uptake into Caco-2 cells in suspension (flow cytometry): r9 being more effective than r7, which was more effective than r5

## N=C(N)NCCC[C@@H](NC(=O)[C@@H](CCCNC(=N)N)NC(=O)[C@@H](CCCNC(=N)N)NC(=O)[C@@H](CCCNC(=N)N)NC(=O)[C@@H](CCCNC(=N)N)NC(=O)[C@@H](CCCNC(=N)N)NC(=O)[C@@H](CCCNC(=N)N)NC(=O)CCCCCNC(=O)CCCC[C@@H]1SC[C@@H]2NC(=O)N[C@@H]21)C(N)=O [Biotinylated arginine heptamer]
Skin of nude mice
  penetration into skin (streptavidin staining): crossed into and across the epidermis and into the dermis
Skin of Balb/C mice
  penetration into skin: crossed into and across the epidermis and into the dermis
[1]
  penetration into human skin: crossed into and across the epidermis and into the dermis of the human skin

## NCCCC[C@@H](NC(=O)[C@@H](CCCCN)NC(=O)[C@@H](CCCCN)NC(=O)[C@@H](CCCCN)NC(=O)[C@@H](CCCCN)NC(=O)[C@@H](CCCCN)NC(=O)[C@@H](CCCCN)NC(=O)CCCCCNC(=S)Nc1ccc2c(c1)C(=O)OC21c2ccc(O)cc2Oc2cc(O)ccc21)C(N)=O [Fl aca k7, reference compound] ({FITC-Ahx}-[dK][dK][dK][dK][dK][dK][dK]-NH2)
Caco-2 cells
  uptake into Caco-2 cells in suspension (flow cytometry): All the polymers of arginine entered cells more effectively than the nonamers of lysine

## CC(=O)O[C@H]1C(=O)[C@@]2(C)[C@H]([C@H](OC(=O)c3ccccc3)[C@]3(O)C[C@H](OC(=O)[C@H](OC(=O)NCCCC[C@H](NC(=O)[C@@H](CCCNC(=N)N)NC(=O)[C@@H](CCCNC(=N)N)NC(=O)[C@@H](CCCNC(=N)N)NC(=O)[C@@H](CCCNC(=N)N)NC(=O)[C@@H](CCCNC(=N)N)NC(=O)CCCCCNC(=O)CCCC[C@@H]4SC[C@@H]5NC(=O)N[C@@H]54)C(N)=O)[C@@H](NC(=O)c4ccccc4)c4ccccc4)C(C)=C1C3(C)C)[C@]1(OC(C)=O)CO[C@@H]1C[C@@H]2O [B-aca-r5-K-taxol]
Skin of nude mice
  penetration of drug conjugates into skin: very little uptake was seen

## O=C(O)CCCC[C@@H]1SC[C@@H]2NC(=O)N[C@@H]21 [biotin, reference compound]
Skin of nude mice
  penetration into skin (streptavidin staining): no staining was apparent
Skin of Balb/C mice
  penetration into skin: no staining was apparent
[1]
  penetration into human skin: no staining was apparent

## N=C(N)NCCC[C@H](NC(=O)[C@H](CCCNC(=N)N)NC(=O)[C@H](CCCNC(=N)N)NC(=O)[C@H](CCCNC(=N)N)NC(=O)[C@H](CCCNC(=N)N)NC(=O)[C@H](CCCNC(=N)N)NC(=O)[C@H](CCCNC(=N)N)NC(=O)CCCCCNC(=S)Nc1ccc2c(c1)C(=O)OC21c2ccc(O)cc2Oc2cc(O)ccc21)C(N)=O [R7, F1-ahx-RRRRRRR]
Caco-2 cells
  uptake into Caco-2 cells in suspension (flow cytometry): r9 being more effective than r7, which was more effective than r5

## C/C=C/C[C@@H](C)[C@@H](OC(=O)CN(Cc1ccccc1)C(=O)CNCC(=O)N[C@H](CCCNC(=N)N)C(=O)N[C@H](CCCNC(=N)N)C(=O)N[C@H](CCCNC(=N)N)C(=O)N[C@H](CCCNC(=N)N)C(=O)N[C@H](CCCNC(=N)N)C(=O)N[C@H](CCCNC(=N)N)C(=O)N[C@H](CCCNC(=N)N)C(=O)O)[C@H]1C(=O)N[C@@H](CC)C(=O)N(C)CC(=O)N(C)[C@@H](CC(C)C)C(=O)N[C@@H](C(C)C)C(=O)N(C)[C@@H](CC(C)C)C(=O)N[C@@H](C)C(=O)N[C@H](C)C(=O)N(C)[C@@H](CC(C)C)C(=O)N(C)[C@@H](CC(C)C)C(=O)N(C)[C@@H](C(C)C)C(=O)N1C [CGC1072]
[2]; PBS pH 7.4 (37° C. where stated)
  half-life: approximately ninety
[2]; buffer, PBS, pH 7.4 at 37° C., read-out: half life (converted)
  half-life: 1.5 h

## N=C(N)NCCC[C@@H](NC(=O)[C@@H](CCCNC(=N)N)NC(=O)[C@@H](CCCNC(=N)N)NC(=O)[C@@H](CCCNC(=N)N)NC(=O)[C@@H](CCCNC(=N)N)NC(=O)[C@@H](CCCNC(=N)N)NC(=O)[C@@H](CCCNC(=N)N)NC(=O)[C@@H](CCCNC(=N)N)NC(=O)[C@@H](CCCNC(=N)N)NC(=O)CCCCCNC(=S)Nc1ccc2c(c1)C(=O)OC21c2ccc(O)cc2Oc2cc(O)ccc21)C(N)=O [r9]
Caco-2 cells; 50 μM, fluorescent microscopy
  uptake into Caco-2 monolayer on microscope slide: virtually every cell in the monolayer was fluorescent after five minutes
Caco-2 cells
  uptake into Caco-2 cells in suspension (flow cytometry): r9 being more effective than r7, which was more effective than r5
Jurkat cells [3]; Discussion
  Km values fold greater / fold better than Tat49-57: 100 fold
Jurkat cells [3]; [5]
  Km: 7.6 µM
  Vmax: 0.38
Jurkat cells [3]; from Km values, Jurkat cells
  rate of entering cells, fold faster than Tat47-59: approximately 100 fold
Jurkat cells [4]
  cellular uptake compared with d-arginine oligomers / other peptoids: comparable to N-btg9
Jurkat cells [4]; peptoids and d-arginine oligomers
  relative order of cellular uptake: N-hxg9 (6 methylene)>N-btg9 (4 methylene)>r9 (3 methylene)>N-arg9 (3 methylene)>N-etg9 (2 methylene)

Reference: patent publication US6669951B2, “Compositions and methods for enhancing drug delivery across and into epithelial tissues” (CellGate, Inc., priority 1999, dated 2003)
